Values of other authors, collected in US6358541B1, “Topical preparation for the treatment of hair loss” (priority 2000, dated 2002).

Legend:
[1] = topical
[2] = 0.1 wt. % adapalene gel, versus petroleum jelly control
comedones = conditions: topical
[3] = vapor; OSHA list 1990

O=C(O)CCCCCCCC(=O)O [Azeleic acid, 1,7 heptanedicarboxylic acid]
irritation relative to tretinoin (retinoic acid) [1]: less irritation than tretinoin

COc1ccc(-c2ccc3cc(C(=O)O)ccc3c2)cc1C12CC3CC(CC(C3)C1)C2 [adapalene, Adapalene]
irritative potential [2]: low irritative potential only slightly greater than a petroleum jelly control | comedolytic activity (comedones): significant comedolytic activity

[O][Cl+][O-] [chlorine dioxide]
Permissible Exposure Level (PEL) [3]: 0.1 ppm

CC1=C(/C=C/C(C)=C/C=C/C(C)=C/C=O)C(C)(C)CCC1 [retinaldehyde, Retinaldehyde]
irritation relative to tretinoin (retinoic acid) [1]: significantly less irritating than retinoic acid
